Assay results taken from US5171837A, “Peptide capable of binding interleukin 6 and an adsorbent comprising the peptide immobilized on a carrier” (Kuraray Co., Ltd., priority 1989, dated 1992).
Non-standard residues stand in square brackets, D forms with d. Residues, ends and D or L forms follow the SMILES beside them. No end group written: not given here. *: point of attachment. X1 = NCCCCCCCCCCCCCCCCCC(=O)*; 12Ado = NCCCCCCCCCCCC(=O)O

The molecules below were run against T1, IL-6 (Homo sapiens, UniProt P05231) (assay: Activity for inhibition of binding of IL-6 to receptor by peptide (IL-6 receptor expression cells, FITC labeled anti-IL-6 antibody)). Settings: 5 μg of the peptide, 50 ng of IL-6, 10^5 IL-6 receptor expression cells, 4° C for one hour.
T1 construct: purchased Genzyme Corp
T1 sequence (P05231 30-212): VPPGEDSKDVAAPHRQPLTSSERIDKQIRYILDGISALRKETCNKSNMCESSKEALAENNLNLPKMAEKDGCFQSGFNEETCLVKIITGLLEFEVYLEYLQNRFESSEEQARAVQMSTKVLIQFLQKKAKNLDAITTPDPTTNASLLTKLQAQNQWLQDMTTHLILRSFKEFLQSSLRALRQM
Protocol: A human lymphocyte fraction was obtained from human peripheral blood with Ficoll-Paque (manufactured by Pharmacia-LKB). The fraction was reacted with a cultured supernatant of Epstein-Barr Virus producing cell strain B958 to transform the human lymphocytes to obtain IL-6 receptor expression cells.
1 mg of anti-human IL-6 antibody [Rabbit Anti-human Interleukin-6, manufactured by Genzyme Corp.] was dissolved in a 0.05M carbonate buffer solution (pH: 9.5) and to the resulting solution was added 10 μg of FITC [Fluorescein isothiocyanate, manufactured by Sigma Corp.]. The mixture was stirred at 4° C. overnight. The resulting solution was passed through PD-10 column (manufactured by Pharmacia-LKB) to obtain FITC labeled anti-IL-6 antibody as a firstly eluted fraction.
10^5 IL-6 receptor expression cells were suspended in 0.5 % BSA (bovine serum albumin, manufactured by Sigma Corp.)-PBS (a phosphate buffer solution containing 0.15 M sodium chloride, pH 7.4) and to the resulting suspension were added 50 ng of IL-6 (Human recombinant interleukin-6, manufactured by Genzyme Corp.) and 5 μg of the peptide obtained in any one of Examples 1 to 96. The suspension was allowed to stand at 4° C for one hour. Then, after washing the cells centrifugally with 0.5% BSA-PBS three times (1200 rpm, 5 min.), 1 μg of FITC labeled anti-IL-6 antibody was added and the mixture was allowed to stand at 4° C. for 30 minutes. After washing with 0.5% BSA-PBS three times, the intensity of fluorescence of the cells was determined. The binding inhibition activity of the peptide of each Example was evaluated, by taking the value obtained without addition of the peptide as a control and taking the value- obtained without addition of IL-6 as a blank, according to the following formula: [formula]

Molecule	Binding inhibition activity (%)
CC(C)C[C@H](NC(=O)[C@H](Cc1c[nH]cn1)NC(=O)[C@@H](NC(=O)[C@@H](NC(=O)CNC(=O)CCCCCCCCCCCCCCCCCN)[C@@H](C)O)C(C)C)C(=O)N[C@@H](CC(C)C)C(=O)N[C@H](C(=O)N[C@@H](CC(=O)O)C(=O)N[C@H](C(=O)N1CCC[C@H]1C(=O)N1CCC[C@H]1C(=O)N[C@@H](CCC(=O)O)C(=O)N[C@@H](CCC(=O)O)C(=O)N1CCC[C@H]1C(=O)N[C@@H](CCC(N)=O)C(=O)N[C@@H](CC(C)C)C(=O)N[C@@H](CO)C(=O)N[C@@H](CS)C(=O)N[C@@H](Cc1ccccc1)C(=O)N[C@@H](CCCNC(=N)N)C(=O)N[C@@H](CCCCN)C(=O)NCC(=O)O)C(C)C)C(C)C [Example 12] (X1-GTVHLLVDVPPEEPQLSCFRKG-OH)	35%
NPRWLSVTWQDPHSK [Example 49]	30%
CC(C)C[C@H](NC(=O)[C@@H](NC(=O)[C@@H](NC(=O)[C@H](CO)NC(=O)[C@H](CC(=O)O)NC(=O)CNC(=O)[C@@H]1CCCN1C(=O)[C@H](CC(C)C)NC(=O)[C@H](CO)NC(=O)[C@@H](NC(=O)CCCCCCCCCCCCCCCCCN)[C@@H](C)O)C(C)C)[C@@H](C)O)C(=O)N[C@H](C(=O)N[C@@H](CS)C(=O)N1CCC[C@H]1C(=O)NCC(=O)N[C@H](C(=O)N[C@@H](CCC(=O)O)C(=O)N1CCC[C@H]1C(=O)N[C@@H](CCC(=O)O)C(=O)N[C@@H](CC(=O)O)C(=O)NCC(=O)O)C(C)C)[C@@H](C)O [Example 4] (X1-TSLPGDSVTLTCPGVEPEDG-OH)	42%
KNPRWLSVTWQDPHSD-NH2 [Example 54]	28%
KRKFQNSPAEDFQEPCQYSQESD-NH2 [Example 22]	58%
QALTTNKDDDNILFRDSAK [Example 25]	45%
DDDDDNPRWLSVTWQDPHSAAG-NH2 [Example 56]	25%
KWNSSFYRLRFELRYRAERSKD-NH2 [Example 38]	56%
QALTTNKDDDNILFRDSA [Example 29]	41%

Other lines, results leading:

Binding inhibition activity (%)	Molecule
52%	DDDDDWQDPHSWNSSFYRLRFELRYRAERSKAAG-NH2 [Example 96]
60%	EEEPHSWNSSFYRLRFELRYRAERSKKG-NH2 [Example 71]
59%	KPHSWNSSFYRLRFELRYRAERSKD-NH2 [Example 70]
63%	CC(C)C[C@H](NC(=O)[C@H](CCC(=O)O)NC(=O)[C@H](Cc1ccccc1)NC(=O)[C@H](CCCNC(=N)N)NC(=O)[C@H](CC(C)C)NC(=O)[C@H](CCCNC(=N)N)NC(=O)[C@H](Cc1ccc(O)cc1)NC(=O)[C@H](Cc1ccccc1)NC(=O)[C@H](CO)NC(=O)[C@H](CO)NC(=O)[C@H](CC(N)=O)NC(=O)[C@H](Cc1c[nH]c2ccccc12)NC(=O)[C@H](CO)NC(=O)[C@H](Cc1c[nH]cn1)NC(=O)[C@@H]1CCCN1C(=O)[C@H](CC(=O)O)NC(=O)CCCCCCCCCCCN)C(=O)N[C@@H](CCCNC(=N)N)C(=O)N[C@@H](Cc1ccc(O)cc1)C(=O)N[C@@H](CCCNC(=N)N)C(=O)N[C@@H](C)C(=O)N[C@@H](CCC(=O)O)C(=O)N[C@@H](CCCNC(=N)N)C(=O)N[C@@H](CO)C(=O)N[C@@H](CCCCN)C(=O)N[C@@H](CCC(=O)O)C(=O)N[C@@H](CCC(=O)O)C(=O)N[C@@H](CCC(=O)O)C(=O)N[C@@H](CCC(=O)O)C(=O)N[C@@H](CCC(=O)O)C(=O)O [Example 75] (H-[12Ado]DPHSWNSSFYRLRFELRYRAERSKEEEEE-OH)
66%	DDDDDQDPHSWNSSFYRLRFELRYRAERSKAAG-NH2 [Example 88]
54%	PHSWNSSFYRLRFELRYRAERSK [Example 69]
70%	KKDPHSWNSSFYRLRFELRYRAERSK [Example 74]
60%	CC(C)C[C@H](NC(=O)[C@H](CCC(=O)O)NC(=O)[C@H](Cc1ccccc1)NC(=O)[C@H](CCCNC(=N)N)NC(=O)[C@H](CC(C)C)NC(=O)[C@H](CCCNC(=N)N)NC(=O)[C@H](Cc1ccc(O)cc1)NC(=O)[C@H](Cc1ccccc1)NC(=O)[C@H](CO)NC(=O)[C@H](CO)NC(=O)[C@H](CC(N)=O)NC(=O)[C@H](Cc1c[nH]c2ccccc12)NC(=O)[C@H](CO)NC(=O)[C@H](Cc1c[nH]cn1)NC(=O)[C@@H]1CCCN1C(=O)[C@H](CC(=O)O)NC(=O)[C@H](CCC(N)=O)NC(=O)[C@H](Cc1c[nH]c2ccccc12)NC(=O)CCCCCCCCCCCN)C(=O)N[C@@H](CCCNC(=N)N)C(=O)N[C@@H](Cc1ccc(O)cc1)C(=O)N[C@@H](CCCNC(=N)N)C(=O)N[C@@H](C)C(=O)N[C@@H](CCC(=O)O)C(=O)N[C@@H](CCCNC(=N)N)C(=O)N[C@@H](CO)C(=O)N[C@@H](CCCCN)C(=O)N[C@@H](CCC(=O)O)C(=O)N[C@@H](CCC(=O)O)C(=O)N[C@@H](CCC(=O)O)C(=O)N[C@@H](CCC(=O)O)C(=O)N[C@@H](CCC(=O)O)C(=O)O [Example 91] (H-[12Ado]WQDPHSWNSSFYRLRFELRYRAERSKEEEEE-OH)
